Here are results for eight compounds from patent US8426408B2, “Pyrimidine inhibitors of kinases” (AbbVie Inc., priority 2009, dated 2013).

One assay deals with KDR (Homo sapiens, UniProt P35968). As to the kind of experiment: KDR HTRF in vitro kinase assay. The assay is classed as biochemical. The arrangement: purified enzyme (His6-KDR 789-1354, MW 63 kD); His6 (N). Particulars: 1 mM ATP; read-out: KDR enzyme inhibition data (Ki). A digest of the protocol:
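His6-KDR 789-1354 (7 ng/well) with 0.5 μM biotinylated peptide substrate and 1 mM ATP in HEPES pH 7.1, MgCl2/MnCl2, 60 min at room temperature. EDTA-quenched, detected by streptavidin-XL-665 plus Eu-kryptate anti-phosphotyrosine HTRF after 3 h; IC50 from 620/665 nm ratio.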
(Time-resolved FRET reads energy transfer from a long-lived donor to a nearby acceptor.)

A further assay relates to NCI-H1299 cells. The experiment in a line: Induction of polyploidy in H1299. Format: cell-based, Human. Particulars: NCI-H1299, 48 hours; for EC15: Homo sapiens, read-out: EC15 (concentration of inhibitor necessary to induce polyploidy in 15% of cells). A digest of the protocol: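 NCI-H1299 cells in RPMI 1640/10% FCS were treated with inhibitor concentrations in duplicate for 48 h at 37 C, then formalin-fixed and Hoechst-stained. Nuclear area was measured by high-content imaging, with polyploid (≥4N) defined as >750 μ^2. EC15 was derived by least-squares fit of log dose-response.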

KDR, sequence (P35968 789-1354): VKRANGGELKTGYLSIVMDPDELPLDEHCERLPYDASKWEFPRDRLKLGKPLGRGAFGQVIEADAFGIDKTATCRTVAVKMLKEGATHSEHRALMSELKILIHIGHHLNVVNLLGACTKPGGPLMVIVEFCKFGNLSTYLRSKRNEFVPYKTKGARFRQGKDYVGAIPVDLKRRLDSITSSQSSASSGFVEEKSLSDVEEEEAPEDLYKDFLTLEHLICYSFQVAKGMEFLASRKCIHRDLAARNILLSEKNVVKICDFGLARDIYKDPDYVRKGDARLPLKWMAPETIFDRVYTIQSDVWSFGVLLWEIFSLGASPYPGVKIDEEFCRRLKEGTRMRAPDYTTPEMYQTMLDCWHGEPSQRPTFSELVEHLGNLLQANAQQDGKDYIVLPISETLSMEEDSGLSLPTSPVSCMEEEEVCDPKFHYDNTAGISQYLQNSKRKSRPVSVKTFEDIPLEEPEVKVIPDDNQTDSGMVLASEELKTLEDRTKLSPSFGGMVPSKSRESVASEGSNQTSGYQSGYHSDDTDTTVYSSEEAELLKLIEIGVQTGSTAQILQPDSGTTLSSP

As a reminder, the Ki is the dissociation constant of the complex between target and ligand, obtained from inhibition or displacement. For the compound “(1S,2R)-2-{[5-chloro-2-({1-[2-(morpholin-4-yl)ethyl]-1H-pyrazol-4-yl}amino)pyrimidin-4-yl]amino}cyclopentanecarboxamide and (1R,2S)-2-{[5-chloro-2-({1-[2-(morpholin-4-yl)ethyl]-1H-pyrazol-4-yl}amino)pyrimidin-4-yl]amino}cyclopentanecarboxamide [Example 137]”, at KDR, the inhibition constant (Ki) was less than 0.1 µM. In addition, the “EC15 (concentration of inhibitor necessary to induce polyploidy in 15% of cells)” value with NCI-H1299 cells was “B (“B” represents an EC15 of between 0.1 μM and 1 μM)”.

`CCn1cc(Nc2ncc(C(F)(F)F)c(N[C@H]3[C@@H](C(N)=O)C[C@H]4C[C@@H]3C4(C)C)n2)cn1` [Example 168, (1R,2R,3S,5R)-2-({2-[(1-ethyl-1H-pyrazol-4-yl)amino]-5-(trifluoromethyl)pyrimidin-4-yl}amino)-6,6-dimethylbicyclo[3.1.1]heptane-3-carboxamide]: the Ki on KDR was less than 0.1 µM. In addition, the EC15 with NCI-H1299 cells was less than 0.1 µM.

Consider `NC(=O)[C@@H]1[C@H](Nc2nc(Nc3cnn(Cc4ccccc4Cl)c3)ncc2Cl)[C@H]2C=C[C@@H]1C2` [Example 161, (1S,2S,3R,4R)-3-[(5-chloro-2-{[1-(2-chlorobenzyl)-1H-pyrazol-4-yl]amino}pyrimidin-4-yl)amino]bicyclo[2.2.1]hept-5-ene-2-carboxamide], for which the Ki at KDR is less than 0.1 µM. Besides, the EC15 in the assay on NCI-H1299 cells was less than 0.1 µM.

With `NC(=O)[C@@H]1[C@H](Nc2nc(Nc3cnn(-c4ccccc4)c3)ncc2Cl)[C@H]2C=C[C@@H]1C2` [Example 174, (1S,2S,3R,4R)-3-({5-chloro-2-[(1-phenyl-1H-pyrazol-4-yl)amino]pyrimidin-4-yl}amino)bicyclo[2.2.1]hept-5-ene-2-carboxamide], the Ki at KDR was less than 0.1 µM. Besides, in the assay with NCI-H1299 cells, the EC15 is less than 0.1 µM.

With `NC(=O)[C@@H]1[C@H](Nc2nc(Nc3cnn(CC(=O)O)c3)ncc2Cl)[C@H]2C=C[C@@H]1C2` [Example 103, {4-[(4-{[(1R,2R,3S,4S)-3-carbamoylbicyclo[2.2.1]hept-5-ene-2-yl]amino}-5-chloropyrimidin-2-yl)amino]-1H-pyrazol-1-yl}acetic acid], on KDR, the inhibition constant (Ki) is less than 0.1 µM. Further, the EC15 in the assay with NCI-H1299 cells is less than 0.1 µM.

In the case of `CCn1cc(Nc2ncc(Cl)c(N[C@@H]3[C@@H]4CC[C@@H](C4)[C@@H]3C(N)=O)n2)cn1.CCn1cc(Nc2ncc(Cl)c(N[C@H]3[C@H]4CC[C@H](C4)[C@H]3C(N)=O)n2)cn1` (mixture of isomers) [Example 114, (1R,2R,3S,4S)-3-({5-chloro-2-[(1-ethyl-1H-pyrazol-4-yl)amino]pyrimidin-4-yl}amino)bicyclo[2.2.1]heptane-2-carboxamide and (1S,2S,3R,4R)-3-({5-chloro-2-[(1-ethyl-1H-pyrazol-4-yl)amino]pyrimidin-4-yl}amino)bicyclo[2.2.1]heptane-2-carboxamide], the Ki at KDR was less than 0.1 µM. For the same compound, the “EC15 (concentration of inhibitor necessary to induce polyploidy in 15% of cells)” value with NCI-H1299 cells is given as “A (“A” represents an EC15 of less than 0.1 μM)”.

On to `CC(C)CCn1cc(Nc2ncc(Cl)c(N[C@H]3[C@@H](C(N)=O)[C@@H]4C=C[C@H]3C4)n2)cn1` [Example 99, (1S,2S,3R,4R)-3-[(5-chloro-2-[1-(3-methylbutyl)-1H-pyrazol-4-yl]aminopyrimidin-4-yl)amino]bicyclo[2.2.1]hept-5-ene-2-carboxamide], for which the Ki on KDR was less than 0.1 µM. Further, the EC15 in the assay on NCI-H1299 cells is less than 0.1 µM.

As for `CCn1cc(Nc2ncc(Br)c(N[C@@H]3[C@H](C(N)=O)[C@H]4C=C[C@@H]3C4)n2)cn1.CCn1cc(Nc2ncc(Br)c(N[C@H]3[C@@H](C(N)=O)[C@@H]4C=C[C@H]3C4)n2)cn1` (mixture of isomers) [Example 31, (1S,2S,3R,4R)-3-({5-bromo-2-[(1-ethyl-1H-pyrazol-4-yl)amino]pyrimidin-4-yl}amino)bicyclo[2.2.1]hept-5-ene-2-carboxamide and (1R,2R,3S,4S)-3-({5-bromo-2-[(1-ethyl-1H-pyrazol-4-yl)amino]pyrimidin-4-yl}amino)bicyclo[2.2.1]hept-5-ene-2-carboxamide], on KDR, the Ki is less than 0.1 µM. Besides, in the assay with NCI-H1299 cells, the “EC15 (concentration of inhibitor necessary to induce polyploidy in 15% of cells)” value is reported as “A (“A” represents an EC15 of less than 0.1 μM)”.
